Measured values: patent US11066446B2, “Cyclic peptide, affinity chromatography support, labeled antibody, antibody drug conjugate, and pharmaceutical preparation” (FUJIFILM Corporation, priority 2016, dated 2021)
Positions of bridges follow the written chain, without caps; N, C: chain ends. Non-standard residues stand in square brackets, D forms with d. Residues, ends and D or L forms follow the SMILES beside them. Triazole bridges read from a SMILES are 1,4-linked. No end group written: not given here. Lys(N3) = [N-]=[N+]=NCCCC[C@H](N)C(=O)O; Orn(N3) = [N-]=[N+]=NCCC[C@H](N)C(=O)O; Dap(N3) = [N-]=[N+]=NC[C@H](N)C(=O)O; Bpg = L-bishomopropargylglycine; Hpra = C#CCC[C@H](N)C(=O)O; Pra = C#CC[C@H](N)C(=O)O

Legend:
[1] = Stability in human plasma (residual rate by mass spectrometry); conditions: 20 minutes at room temperature, 0-minute sample as 100%
Procedure: After 20 minutes, 100 μL of methanol (manufactured by Wako Pure Chemical Industries, Ltd.) was added thereto such that the reaction stopped. After being stirred, the solution was subjected to centrifugation, and the supernatant was collected and named 20-minute sample. Meanwhile, 100 μL of methanol was added to 20 μL of the human plasma, 2 μL of the aqueous solution of the cyclic peptide was then added thereto, the solution was stirred and subjected to centrifugation, and the supernatant was collected. The collected supernatant was named 0-minute sample.
By regarding the quantified value obtained from the 0-minute sample as 100%, the quantified value obtained from the 20-minute sample was calculated as a residual rate.

[2] = tested on: human immunoglobulin G (IgG) antibodies; assay: Relative binding activity to human IgG antibodies by surface plasmon resonance on immobilized sensor chip; conditions: SPR (Biacore 3000, CM5 chip), 3,000 nM human IgG for 10 minutes at 25° C., relative to the cyclic peptide of Comparative Example 1 regarded as 1
Procedure: A commercially available CM5 (carboxymethyl dextran introduction-type, manufactured by GE Healthcare) sensor chip was set in Biacore 3000 (Biacore is a registered trademark) as a surface plasmon resonance device manufactured by GE Healthcare, a 4-(2-hydroxyethyl)-1-piperazineethanesulfonic acid (HEPES) buffer solution (20 mM HEPES-HCl, 150 mM NaCl, pH 7.4) for surface plasmon resonance (SPR) was stabilized at a flow rate of 10 μL/min, and 70 μL of an aqueous mixed solution of 0.2 M 1-(3-Dimethylaminopropyl)-3-ethylcarbodiimide (EDC) and […] of N-Hydroxysuccinimide (NHS) were injected thereinto. Thereafter, 100 μL of a sample solution of the cyclic peptide 1, which was diluted with a HEPES buffer solution at 0.2 g/L and treated with a polytetrafluoroethylene (PTFE) filter (manufactured by Advantec MFS, Inc.) having a diameter of 0.20 μm, was supplied to the sensor chip. Then, a blocking treatment was then performed on the sample solution by using an aqueous ethanolamine solution, and the sensor chip was washed with an aqueous sodium hydroxide solution, thereby performing immobilization. Likewise, 70 μL of an aqueous mixed solution of 0.2 M EDC and 0.04 M NHS was added to the same sensor chip without immobilizing the sample in another flow channel of the sensor chip, and then the blocking treatment and the washing treatment were performed. Hereinafter, the obtained immobilized sensor chip will be referred to as “immobilized sensor chip A”.
At 25° C., 3,000 nM of human immunoglobulin G (IgG) antibodies were added for 10 minutes to the immobilized sensor chip A prepared in (2) described above. Then, the antibody binding amount in the flow channel in which the cyclic peptide was immobilized immediately after the addition and in the flow channel in which the cyclic peptide was not immobilized was measured. From the difference in the antibody binding amount between the flow channel in which the cyclic peptide was immobilized and the flow channel in which the cyclic peptide was not immobilized and the amount of the immobilized cyclic peptide, the activity of the cyclic peptide was calculated. Furthermore, by regarding the activity of a cyclic peptide 5 in Comparative Example 1 as 1, the relative binding activity with respect to the human IgG antibodies was calculated.

[3] = Chemical resistance: rate of change in antibody binding amount of immobilized support before and after alkali treatment; format: physicochemical; conditions: peptide-immobilized HiTrap support; human IgG binding amount at 10% leak, before and after 0.05 M aqueous NaOH for 6 hours at 25° C.
Procedure: 1 mL of HiTrap NHS-activated HP Columns (coupling columns for ligand immobilization, manufactured by GE Healthcare) (HITRAP is a registered trademark) was reacted with 1 mL of 10 mg/mL cyclic peptide solution, which was prepared by dissolving the cyclic peptide 1 in an immobilization buffer (10% DMSO in 200 mM NaHCO3, 500 mM NaCl, pH 8.3), for 1 hour at 25° C. The reaction product was blocked by an aqueous ethanolamine solution and washed, thereby obtaining a cyclic peptide 1-immobilized support. Hereinafter, the obtained immobilized support will be referred to as “immobilized support A”.
The immobilized support A prepared in (4) described above was connected to a chromatography system AKTA avant 25 (manufactured by GE Healthcare) (AKTAAVANT is a registered trademark), and the antibody binding amount was measured. The columns were equilibrated using an equilibration solution (20 mM phosphoric acid buffer, 150 mM NaCl, pH 7.4), and then 20 mL of a 5 mg/mL human IgG antibody standard buffer solution (20 mM phosphoric acid buffer, 150 mM NaCl, pH 7.4) was injected thereinto at a flow rate of 0.21 mL/min. Thereafter, the columns were washed with 5 mL of a postloading wash solution (20 mM phosphoric acid buffer, 150 mM NaCl, pH 7.4) caused to flow at the same flow rate and then washed with 5 mL of a pre-elution wash solution (20 mM phosphoric acid buffer, 1 M NaCl, pH 7.4) at the same flow rate. Then, 5 mL of an elution solution (100 mM citric acid buffer, pH 3.2) was caused to flow at the same flow rate. Subsequently, 5 mL of a cleaning in place (CIP) solution (0.1 M sodium hydroxide) was caused to flow at the same flow rate, and then 5 mL of a reequilibration solution (20 mM phosphoric acid buffer, 150 mM NaCl, pH 7.4) was caused to flow at the same flow rate. At this time, by using an immunoglobulin G (IgG) elution peak obtained by monitoring absorbance at 280 nm, the amount of antibodies binding to the support until 10% of the antibody stock solution leaked out of the support was measured as the antibody binding amount. Then, the immobilized support A was filled with a 0.05 M aqueous NaOH solution for 6 hours at 25° C. and left to stand, the antibody binding amount of the support was then measured in the same manner, and a rate of change in the binding amount was calculated from the antibody binding amount before and after the alkali treatment.

Compound | Stability in plasma (residual rate) [1] | Relative binding activity [2] | Chemical resistance (rate of change in the binding amount) [3] | Relative binding activity ([2]; listed as Example 16) | Relative binding activity ([2]; listed as Example 9)
CC(C)C[C@@H]1NC(=O)[C@H](Cc2c[nH]cn2)NC(=O)[C@H](Cc2ccc(O)cc2)NC(=O)[C@H](C)NC(=O)[C@@H](NC(=O)[C@@H](N)CC(=O)O)CCc2cn(nn2)C[C@@H](C(=O)N[C@H](C(=O)N[C@@H](CCCCN)C(=O)N[C@@H](CCCCN)C(=O)O)[C@@H](C)O)NC(=O)[C@H](Cc2c[nH]c3ccccc23)NC(=O)[C@H](C(C)C)NC(=O)[C@H](CC(C)C)NC(=O)[C@H](CCC(=O)O)NC(=O)CNC1=O [Cyclic peptide 4, Asp-[Hpg]-Ala-Tyr-His-Leu-Gly-Glu-Leu-Val-Trp-[Ala(N3)]-Thr-Lys-Lys] (H-D[Hpra]AYHLGELVW[Dap(N3)]TKK-OH; triazole 2-12; N-terminus and C-terminus assumed) | A (The rate of change in the binding amount was higher than 90%) | – | – | – | –
CC(C)C[C@@H]1NC(=O)[C@H](CCC(=O)O)NC(=O)CNC(=O)[C@H](CCCNC(=N)N)NC(=O)[C@H](Cc2c[nH]cn2)NC(=O)[C@H](Cc2ccc(O)cc2)NC(=O)[C@H](C)NC(=O)[C@@H](NC(=O)[C@@H](N)CC(=O)O)CCC(=O)NCCCC[C@@H](C(=O)N[C@H](C(=O)N[C@@H](CCCCN)C(=O)N[C@@H](CCCCN)C(=O)O)[C@@H](C)O)NC(=O)[C@H](Cc2c[nH]c3ccccc23)NC(=O)[C@H](C(C)C)NC1=O [Cyclic peptide 17, Asp-[Glu]-Ala-Tyr-His-Arg-Gly-Glu-Leu-Val-Trp-[Lys]-Thr-Lys-Lys, reference compound] (HELM PEPTIDE1{D.E.A.Y.H.R.G.E.L.V.W.K.T.K.K}$PEPTIDE1,PEPTIDE1,2:R3-12:R3$$$V2.0; N-terminus and C-terminus assumed) | E (The rate of change in the binding amount was equal to or lower than 50%) | – | – | – | –
Asp-[Lys(N3)]-Ala-Tyr-His-Arg-Gly-Glu-Leu-Val-Trp-[Bpg]-Thr-Lys-Lys (D[Lys(N3)]AYHRGELVW[Bpg]TKK; triazole 2-12) [Cyclic peptide 1, [Lys(N3)] and [Bpg] cross-linked through a triazole bond] | A (The rate of change in the binding amount was higher than 90%) | A (The relative binding activity was higher than 800% of the binding activity of the cyclic peptide 5) | B (The rate of change in the binding amount was higher than 80% and equal to or lower than 90%) | – | –
Asp-[Lys(N3)]-Ala-Tyr-His-Leu-Gly-Glu-Leu-Val-Trp-[Bpg]-Thr-Lys-Lys (D[Lys(N3)]AYHLGELVW[Bpg]TKK; triazole 2-12) [Cyclic peptide 2, [Lys(N3)] and [Bpg] cross-linked through a triazole bond] | A (The rate of change in the binding amount was higher than 90%) | A (The relative binding activity was higher than 800% of the binding activity of the cyclic peptide 5) | A (The rate of change in the binding amount was higher than 90%) | – | –
Asp-[Nva(N3)]-Ala-Tyr-His-Leu-Gly-Glu-Leu-Val-Trp-[Bpg]-Thr-Lys-Lys (D[Orn(N3)]AYHLGELVW[Bpg]TKK; triazole 2-12) [Cyclic peptide 16, [Nva(N3)] and [Bpg] cross-linked through a triazole bond] | – | B (The relative binding activity was higher than 400% and equal to or lower than 800% of the binding activity of the cyclic peptide 5) | A (The rate of change in the binding amount was higher than 90%) | C or a higher grade | –
Asp-[Pra]-Ala-Tyr-His-Leu-Gly-Glu-Leu-Val-Trp-[Lys(N3)]-Thr-Lys-Lys (D[Pra]AYHLGELVW[Lys(N3)]TKK; triazole 2-12) [Cyclic peptide 9, [Pra] and [Lys(N3)] cross-linked through a triazole bond] | – | B (The relative binding activity was higher than 400% and equal to or lower than 800% of the binding activity of the cyclic peptide 5) | A (The rate of change in the binding amount was higher than 90%) | – | C or a higher grade
Lys-Lys-Lys-Asp-[Hpg]-Ala-Tyr-His-Leu-Gly-Glu-Leu-Val-Trp-[Ala(N3)]-Thr (KKKD[Hpra]AYHLGELVW[Dap(N3)]T; triazole 5-15) [Cyclic peptide 5, [Hpg] and [Ala(N3)] cross-linked through a triazole bond] | – | A (The relative binding activity was higher than 800% of the binding activity of the cyclic peptide 5) | A (The rate of change in the binding amount was higher than 90%) | – | –
